In ChEMBL document CHEMBL4825681, “Iron-Catalyzed Skeletal Conversion of Lathyrane to Premyrsinane Euphorbia Diterpenes and Their Cytotoxic Activities” (J Nat Prod, 2021):

Test system: 4T1
Test: Cytotoxicity against mouse 4T1 cells assessed as reduction in cell viability incubated for 24 hrs by MTT assay
Format: functional, cell-based
Settings: 4T1, 24 h

Compound | IC50 [µM]
CC(=O)O[C@@H]1[C@H]2[C@@H](OC(=O)c3ccccc3)[C@@H](C)C[C@]2(OC(C)=O)C(=O)[C@@H](C)[C@@H]2[C@@H]3[C@H](CC[C@]21C)C3(C)C | 2.5
CC(=O)O[C@@H]1[C@H]2[C@@H](OC(=O)c3ccccc3)[C@@H](C)C[C@]2(OC(C)=O)C(=O)[C@H](C)[C@@H]2[C@@H]3[C@H](CC[C@]21C)C3(C)C | 8.2
C=C1CC[C@H]2[C@@H](/C=C(\C)C(=O)[C@@]3(OC(C)=O)C[C@H](C)[C@H](OC(=O)c4ccccc4)[C@@H]3[C@H]1OC(C)=O)C2(C)C | > 10
CC(=O)O[C@H]1C(=O)[C@@]2(C)[C@H]([C@H](OC(=O)c3ccccc3)[C@]3(O)C[C@H](OC(=O)[C@H](O)[C@@H](NC(=O)c4ccccc4)c4ccccc4)C(C)=C1C3(C)C)[C@]1(OC(C)=O)CO[C@@H]1C[C@@H]2O [PACLITAXEL] | 0.8
